Here are results for ten compounds from BindingDB's records for doi:10.1080/14756360290019944 (University of Porto-Rua Anibal Cunha, 2002).

Where only a bound is given, the exact number is not on record here.

Chain of Xanthine dehydrogenase/oxidase (P47989 whole entry): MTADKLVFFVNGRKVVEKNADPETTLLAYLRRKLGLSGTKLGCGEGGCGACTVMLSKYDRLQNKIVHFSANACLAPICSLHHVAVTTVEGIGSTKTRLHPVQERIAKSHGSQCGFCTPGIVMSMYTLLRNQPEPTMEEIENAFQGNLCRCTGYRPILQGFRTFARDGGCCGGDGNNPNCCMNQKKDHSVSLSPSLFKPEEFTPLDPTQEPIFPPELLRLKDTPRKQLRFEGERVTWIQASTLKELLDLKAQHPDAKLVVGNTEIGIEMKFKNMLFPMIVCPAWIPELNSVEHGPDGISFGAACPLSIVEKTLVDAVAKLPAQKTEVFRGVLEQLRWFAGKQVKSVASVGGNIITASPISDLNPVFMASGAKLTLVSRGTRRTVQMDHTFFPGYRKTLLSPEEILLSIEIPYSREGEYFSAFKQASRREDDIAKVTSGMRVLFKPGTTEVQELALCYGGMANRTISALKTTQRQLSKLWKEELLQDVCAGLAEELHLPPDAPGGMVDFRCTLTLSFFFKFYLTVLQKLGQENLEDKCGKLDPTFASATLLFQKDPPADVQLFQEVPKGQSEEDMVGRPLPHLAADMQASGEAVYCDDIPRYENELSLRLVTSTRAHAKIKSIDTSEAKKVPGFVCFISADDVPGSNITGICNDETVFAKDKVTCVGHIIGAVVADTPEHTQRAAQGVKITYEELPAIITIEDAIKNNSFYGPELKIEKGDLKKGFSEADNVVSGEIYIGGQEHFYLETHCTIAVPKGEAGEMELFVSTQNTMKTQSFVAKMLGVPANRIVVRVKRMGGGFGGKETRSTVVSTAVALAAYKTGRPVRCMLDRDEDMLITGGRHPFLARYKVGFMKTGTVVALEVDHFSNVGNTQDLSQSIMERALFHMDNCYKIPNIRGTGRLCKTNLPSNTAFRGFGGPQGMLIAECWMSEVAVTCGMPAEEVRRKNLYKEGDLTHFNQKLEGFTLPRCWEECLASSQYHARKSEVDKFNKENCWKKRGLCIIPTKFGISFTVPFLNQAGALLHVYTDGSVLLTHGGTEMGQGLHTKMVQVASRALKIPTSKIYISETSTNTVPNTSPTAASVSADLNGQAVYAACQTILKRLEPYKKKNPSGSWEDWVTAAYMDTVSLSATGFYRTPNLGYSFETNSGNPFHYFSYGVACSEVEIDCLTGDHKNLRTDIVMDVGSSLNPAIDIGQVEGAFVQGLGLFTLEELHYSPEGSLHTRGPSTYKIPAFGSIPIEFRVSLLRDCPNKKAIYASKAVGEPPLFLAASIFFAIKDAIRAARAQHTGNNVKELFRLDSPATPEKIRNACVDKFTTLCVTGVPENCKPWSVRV

This test concerns the target Xanthine dehydrogenase/oxidase (Homo sapiens, UniProt P47989). The experiment in a line: Inhibition Assay. The conditions noted are these: pH 7.8; 25 °C. The method, then: The effect of 2-styrylchromone 1-3 on xanthine oxidase activity was evaluated by measuring the formation of uric acid from xanthine in a double beam spectrophotometer (Shimadzu 2600) at room temperature.
Turning to `O=c1cc(/C=C/c2ccccc2)oc2ccccc12`, the IC50 (as a rule, the concentration needed to halve the response being measured) was more than 100 µM.

`O=c1cccc2oc(C=Cc3ccccc3)cc(O)c1-2` [2-Styrylchromone derivate, 1b] returned a 50% inhibitory concentration (IC50) of 52.1 µM.

Consider `O=c1cc(/C=C/c2ccccc2)oc2cc(O)ccc12` [2-Styrylchromone derivate, 1c], for which it took 17 µM to reach half-maximal inhibition (IC50).

For the compound `O=c1cc(C=Cc2ccccc2)oc2cc(O)cc(O)c12` [2-Styrylchromone derivate, 1d], it took 2.52 µM to reach half-maximal inhibition (IC50).

As for `O=c1cccc2oc(C=Cc3ccc(O)cc3)cc(O)c1-2` [2-Styrylchromone derivate, 2a], the concentration for half-maximal inhibition (IC50) was found to be 77.4 µM.

Regarding `O=c1cc(/C=C/c2ccc(O)cc2)oc2cc(O)ccc12` [2-Styrylchromone derivate, 2b], half-maximal inhibition (IC50) was put at 19.6 µM.

In the case of `O=c1cc(C=Cc2ccc(O)cc2)oc2cc(O)cc(O)c12` [2-Styrylchromone derivate, 2c], 9.46 µM corresponded to half-maximal inhibition (IC50).

`O=c1cccc2oc(C=Cc3ccc(O)c(O)c3)cc(O)c1-2` [2-Styrylchromone derivate, 3a] came in with an IC50 of 4.36 µM.

Take `O=c1cc(/C=C/c2ccc(O)c(O)c2)oc2cc(O)ccc12` [2-Styrylchromone derivate, 3b]: half-maximal inhibition (IC50) required 2.03 µM.

Regarding `O=c1cc(O)cc2oc(C=Cc3ccc(O)c(O)c3)cc(O)c1-2` [2-Styrylchromone derivate, 3c], the concentration for half-maximal inhibition (IC50) worked out at 0.55 µM.
